Assay results taken from ChEMBL document CHEMBL1146673, “Inhibition of ICAM-1/LFA-1-mediated heterotypic T-cell adhesion to epithelial cells: design of ICAM-1 cyclic peptides” (2004).

System: T-cell
Test: Ability of compound to inhibit the T-cell adhesion at 200 uM in cell adhesion assay
Assay type: functional, Homo sapiens

Substance	T-cell binding [%]
H-VIAPRG-OH	46
H-PSKVIL-OH	44
H-VILPRG-OH	32
H-VILPRA-OH	68
H-LPRGGS-OH	37
H-KVILPR-OH	49
H-VALPRG-OH	71
H-PRGGSV-OH	25
H-AILPRG-OH	53
H-ILPRGG-OH	46
H-VILARG-OH	62
